Assay results: patent US20220347266A1, “METHOD AND MEDICINE FOR TREATING DEPRESSIVE DISORDERS” (QINGDAO PRIMEDICINE PHARMACEUTICAL CO., LTD., priority 2018, published 2022)
Where no end group is shown, it is not given here.

Key:
C57 mice = experiment: Forced swim test (FST) of mice, behavioral despair model of depressive disorder; type: in vivo, mouse; conditions: for immobility time of forced swimming mice: vs vehicle, FIG. 1
From the text: Among the behavioral despair models, forced swim test of mice/rats is the most common animal model of depressive disorder to evaluate the effect of antidepressants. In this model, animals are forced to swim in water in a limited space. After struggling for many times but failing to escape, the animals may stop swimming and begin floating without struggling to escape anymore. This immobility is considered as the manifestation of behavioral despair and depression. This model has good predictive validity for antidepressants.
By using ketamine metabolite HNK as a positive control medication, the effect of compound PMS-001 on depression-like behavior of C57 mice was investigated through forced swim test 1 hour and 24 hours after single medicinal intervention. […]; (SEQ ID NO: 3). Wherein the amino acid sequence YGRKKRRQRRR (SEQ ID NO: 2), also known as Tat peptide, is a carrier peptide, and can assist the polypeptide in penetration of the blood-brain barrier. […] However, it is unknown in the art whether a C-terminal polypeptide of GluR2 such as YKEGYNVYG (SEQ ID NO: 1) can be used in the treatment of depressive disorder, specifically major depressive disorder.
The experimental animals were 6-week-old male C57 mice obtained from Shanghai SLAC Laboratory Animal Co., Ltd, with body weight of […]. They were transported to the Animal Breeding Center of Shanghai Institute of Materia Medica, Chinese Academy of Sciences (Animal production license: SCXK9 [Shanghai] 2004-0002, use license: SYXK [Shanghai] 2003-0029), and allowed to acclimatize in animal facilities for more than 3 days, with 6 individuals per cage. Mice were housed at room temperature (23±0.2° C.), with a 12 h/12 h light/dark cycle. Before the behavioral test, animals were moved to the behavior testing room 2 hours in advance for acclimation to relieve tension. […]
24 hours before administration, each mouse was placed into a cylinder tank for acclimation in the water environment for 10 min. […] Mice were videotaped for 6 minutes since being placed into water, and the immobility time for the last 4 minutes was calculated due to the fact that most animals were very active in the first two minutes (the criteria for immobility: mice stop struggling, keep immobility and make small movements to balance their bodies or float in water). […]
All data analyses were performed with spss 22 data processing software. […] Data were expressed as Mean±SEM. *: p<0.05; **: p<0.01; ***: p<0.001.

AMPAR = conditions: from EP1,687,427B1; cited from earlier work

Row | Sequence | immobility time of forced swimming mice (C57 mice; 1 hour after administration, single 10 mg/kg intraperitoneal injection) | immobility time of forced swimming mice (C57 mice; 24 hours after administration, single 10 mg/kg intraperitoneal injection) | antidepressant effect compared to positive control HNK (C57 mice; same dose (10 mg/kg i.p.)) | onset of antidepressant effect after administration (C57 mice; single 10 mg/kg intraperitoneal injection) [h] | inhibition of NMDA-mediated excessive endocytosis of AMPAR (AMPAR)
1 | YGRKKRRQRRRYKEGYNVYG [PMS-001] | very significantly decrease | very significantly decrease | better rapid and lasting antidepressant effect | 1 | 
2 | YKEGYNVYG (Artificially synthesized GluR2-3Y peptide) |  |  |  |  | proved to inhibit
